Tests used:
[1] = Dynamic Vapor Sorption (DVS) / hygroscopicity; assay type: physicochemical; details: for Change In Mass (%) - ref, Desorption / Change In Mass (%) - ref, Sorption / Change In Mass (%) - ref, Hysteresis: 25° C.
Experimental: Details of DVS method used in the tests are mentioned below: • Samples (about 10 mg) were transferred into a DVS pan, the weight changes were recorded with respect to the atmospheric humidity at 25° C.
The following parameters were used: • Equilibrium: dm/dt: 0.01%/min. (for min: 10 min and max: 180 min). • Drying: 0% RH for 120 min. • RH (%) measurement step: 5%, • RH (%) measurement step scope: 0˜95˜0%.

[2] = Physical stability on storage, XRPD pattern; assay type: physicochemical; details: for physical stability: 25° C. closed, 25° C./60% RH and 40° C. closed, three months (not 40° C./75% RH)
Experimental: 3.1 XRPD Method • Details of XRPD method used in the tests are mentioned below: • X-ray Generator: Cu, Kα (λ=1.54179 Å). • Tube Voltage: 40 kV; Current: 40 mA. • Scanning Scope: 4 to 40 deg; • Sample rotation speed: 15 rpm. • Scanning rate: 10 deg/min
About 40 mg of scaled up amorphous sample prepared by solvent-anti-solvent precipitation (addition of water to acetone) as described in Example 6 was weighed into glass vials. The vials were stored under different testing conditions (25° C. closed vial, 25° C./60% RH, 40° C. closed vial and 40° C./75% RH) 1 week, 2 weeks, 4 weeks, and 3 months. The original scaled up amorphous form was used as a control. XRPD and mDSC were checked at the end of each time point.

[3] = DVS Cycle 1, target 10.0 % P/Po
[4] = DVS Cycle 1, target 15.0 % P/Po
[5] = DVS Cycle 1, target 20.0 % P/Po
[6] = DVS Cycle 1, target 25.0 % P/Po
[7] = DVS Cycle 1, target 30.0 % P/Po
[8] = DVS Cycle 1, target 35.0 % P/Po
[9] = DVS Cycle 1, target 40.0 % P/Po
[10] = DVS Cycle 1, target 45.0 % P/Po
[11] = DVS Cycle 1, target 50.0 % P/Po
[12] = DVS Cycle 1, target 55.0 % P/Po
[13] = DVS Cycle 1, target 60.0 % P/Po
[14] = DVS Cycle 1, target 65.0 % P/Po
[15] = DVS Cycle 1, target 70.0 % P/Po
[16] = DVS Cycle 1, target 75.0 % P/Po
[17] = DVS Cycle 1, target 80.0 % P/Po
[18] = DVS Cycle 1, target 85.0 % P/Po
[19] = DVS Cycle 1, target 90.0 % P/Po
[20] = DVS Cycle 1, target 95.0 % P/Po

In the case of CCOc1cc([C@@H](CS(C)(=O)=O)N2C(=O)c3cccc(NC(C)=O)c3C2=O)ccc1OC [amorphous apremilast, N-[2-[(1S)-1-(3-ethoxy-4-methoxyphenyl)-2-(methylsulfonyl)ethyl]-2,3-dihydro-1,3-dioxo-1H-isoindol-4-yl]acetamide], the “Change In Mass (%) - ref, Desorption” value ([1]; DVS Cycle 1, target 0.0 % P/Po) is reported as −0.066%, the “Change In Mass (%) - ref, Sorption” value ([1]; DVS Cycle 1, target 0.0 % P/Po) is reported as −0.010% and the “Change In Mass (%) - ref, Desorption” value ([1]; DVS Cycle 1, target 5.0 % P/Po) is reported as 0.138%. The “Change In Mass (%) - ref, Hysteresis” value ([1]; DVS Cycle 1, target 5.0 % P/Po) was −0.045%, the “Change In Mass (%) - ref, Sorption” value ([1]; DVS Cycle 1, target 5.0 % P/Po) was 0.183% and the “Change In Mass (%) - ref, Desorption” value [1, 3] was 0.308%. The “Change In Mass (%) - ref, Hysteresis” value [1, 3] was −0.006%, the “Change In Mass (%) - ref, Sorption” value [1, 3] was 0.314% and the “Change In Mass (%) - ref, Desorption” value [1, 4] was 0.463%. For the same compound, the “Change In Mass (%) - ref, Hysteresis” value [1, 4] was 0.030%, the “Change In Mass (%) - ref, Sorption” value [1, 4] was 0.434% and the “Change In Mass (%) - ref, Desorption” value [1, 5] was 0.606%. The “Change In Mass (%) - ref, Hysteresis” value [1, 5] was 0.066%, the “Change In Mass (%) - ref, Sorption” value [1, 5] was 0.540% and the “Change In Mass (%) - ref, Desorption” value [1, 6] was 0.740%. For the same compound, the “Change In Mass (%) - ref, Hysteresis” value [1, 6] was 0.107%, the “Change In Mass (%) - ref, Sorption” value [1, 6] was 0.633% and the “Change In Mass (%) - ref, Desorption” value [1, 7] was 0.860%. For the same compound, the “Change In Mass (%) - ref, Hysteresis” value [1, 7] was 0.131%, the “Change In Mass (%) - ref, Sorption” value [1, 7] was 0.730% and the “Change In Mass (%) - ref, Desorption” value [1, 8] was 0.976%. The “Change In Mass (%) - ref, Hysteresis” value [1, 8] was 0.155%, the “Change In Mass (%) - ref, Sorption” value [1, 8] was 0.821% and the “Change In Mass (%) - ref, Desorption” value [1, 9] was 1.090%. The “Change In Mass (%) - ref, Hysteresis” value [1, 9] was 0.181%, the “Change In Mass (%) - ref, Sorption” value [1, 9] was 0.909% and the “Change In Mass (%) - ref, Desorption” value [1, 10] was 1.203%. The “Change In Mass (%) - ref, Hysteresis” value [1, 10] was 0.200%, the “Change In Mass (%) - ref, Sorption” value [1, 10] was 1.003% and the “Change In Mass (%) - ref, Desorption” value [1, 11] was 1.311%. The “Change In Mass (%) - ref, Hysteresis” value [1, 11] was 0.224%, the “Change In Mass (%) - ref, Sorption” value [1, 11] was 1.087% and the “Change In Mass (%) - ref, Desorption” value [1, 12] was 1.411%. For the same compound, the “Change In Mass (%) - ref, Hysteresis” value [1, 12] was 0.238%, the “Change In Mass (%) - ref, Sorption” value [1, 12] was 1.173% and the “Change In Mass (%) - ref, Desorption” value [1, 13] was 1.514%. For the same compound, the “Change In Mass (%) - ref, Hysteresis” value [1, 13] was 0.250%, the “Change In Mass (%) - ref, Sorption” value [1, 13] was 1.263% and the “Change In Mass (%) - ref, Desorption” value [1, 14] was 1.619%. The “Change In Mass (%) - ref, Hysteresis” value [1, 14] was 0.258%, the “Change In Mass (%) - ref, Sorption” value [1, 14] was 1.360% and the “Change In Mass (%) - ref, Desorption” value [1, 15] was 1.730%. The “Change In Mass (%) - ref, Hysteresis” value [1, 15] was 0.270%, the “Change In Mass (%) - ref, Sorption” value [1, 15] was 1.460% and the “Change In Mass (%) - ref, Desorption” value [1, 16] was 1.836%. For the same compound, the “Change In Mass (%) - ref, Hysteresis” value [1, 16] was 0.338%, the “Change In Mass (%) - ref, Sorption” value [1, 16] was 1.498% and the “Change In Mass (%) - ref, Desorption” value [1, 17] was 1.940%. The “Change In Mass (%) - ref, Hysteresis” value [1, 17] was 0.306%, the “Change In Mass (%) - ref, Sorption” value [1, 17] was 1.634% and the “Change In Mass (%) - ref, Desorption” value [1, 18] was 1.972%. The “Change In Mass (%) - ref, Hysteresis” value [1, 18] was 0.208%, the “Change In Mass (%) - ref, Sorption” value [1, 18] was 1.763% and the “Change In Mass (%) - ref, Desorption” value [1, 19] was 1.956%. For the same compound, the “Change In Mass (%) - ref, Hysteresis” value [1, 19] was 0.122%, the “Change In Mass (%) - ref, Sorption” value [1, 19] was 1.834% and the “Change In Mass (%) - ref, Desorption” value [1, 20] was 1.883%. The “Change In Mass (%) - ref, Sorption” value [1, 20] was 1.883%, the “Hygroscopicity Classification” value ([1]; based on DVS data, criterion at 25 ± 1° C. and 80 ± 2% RH) was “slightly hygroscopic” and the physical stability [2] was “good physical stability”. The physical stability ([2]; listed as Apremilast) was “stable for three months” and the “XRPD Pattern” value ([2]; Initial) was “Amorphous”.

From US9994522B2, “Amorphous form of apremilast” (MAPI PHARMA LTD., priority 2014, dated 2018)
